Where a name gives a salt, the structure may show the parent alone. Blank lines part the entries; values can stand above or below the compound they belong to.
Assay: Solubility of the salts (saturated solution, filtering, HPLC determination of homoeriodictyol content)
Type: physicochemical
Description: The solubility of the homoeriodictyol sodium salt and the salts produced in Example 1 and Example 2 is determined by the production of a saturated solution, filtering of this and then HPLC determination of the homoeriodictyol content.

- solubility compared with pure homoeriodictyol sodium salt: better solubility
- Solubility in water, containing 1.5 g/l citric acid (water containing 1.5 g/l citric acid, saturated solution, filtered, HPLC, potassium salt): 5100 µg/mL
- Solubility in water (saturated solution, filtered, HPLC, potassium salt): 7000 µg/mL
SMILES: COc1cc([C@@H]2CC(=O)c3c(O)cc(O)cc3O2)ccc1O [Example 1, homoeriodictyol potassium salt]

- Solubility in water, containing 1.5 g/l citric acid (water containing 1.5 g/l citric acid, saturated solution, filtered, HPLC, Potassium Calcium Salt): 5400 µg/mL
- Solubility in water (saturated solution, filtered, HPLC, Potassium Calcium Salt): 10000 µg/mL
SMILES: COc1cc([C@@H]2CC(=O)c3c(O)cc(O)cc3O2)ccc1O [Example 2, Homoeriodictyol Potassium Calcium Salt]

- solubility (water containing 1.5 g/l citric acid, aqueous buffer, thermodynamic from solid, saturated solution, filtered, HPLC): 3800 µg/mL
- Solubility in water (saturated solution, filtered, HPLC, sodium salt): 2800 µg/mL
SMILES: COc1cc([C@@H]2CC(=O)c3c(O)cc(O)cc3O2)ccc1O [Homoeriodictyol sodium salt, reference compound]

From patent US9198451B2, “Aroma composition to reduce or suppress undesirable bitter and astringent taste impressions of sweeteners” (SYMRISE AG, priority 2008, dated 2015)
